According to patent publication US20120277265A1, “NOVEL POLYQUINOLINE DERIVATIVES AND THE THERAPEUTIC USE THEREOF” (CENTRE NATIONAL DE LA RECHERCHE SCIENTIFIQUE (C.N.R.S.), priority 2005, published 2012):
Like-named read-outs stand apart in the source and are kept apart here.

Assays:
[1] = molecular target: T1, copper complexes of Aβ1-42 peptide (Homo sapiens, UniProt P05067); experiment: Hydrogen peroxide produced by Aβ1-42 in the presence of CuCl2, ascorbate, air and ligand (Amplex Red H2O2/HRP); type: biochemical; conditions: for amount of H2O2, 0.2 μM Aβ1-42 Cu/Aβ = 2 / amount of H2O2, 0.5 μM Aβ1-42 Cu/Aβ = 0.75: CuCl2 0.4 μM, ascorbate 10 μM, air
T1 construct: The β-amyloid peptide Aβ1-42 (Aβ1-42) was synthesised, purified (to a purity greater than 95%); made in house; host or cells: chemical peptide synthesis (no expression host)

[2] = as above; type: biochemical; conditions: CuCl2 0.4 μM, ascorbate 10 μM, air
[3] = Competition reaction between ligand (Ls), CuCl2 and competing chelator (Lc), UV-visible; affinity constants; conditions: for number of Lc equivalents making it possible to form 50% of CuLs, Lc = EDTA: mixture of Ls (15 μM, 1 equivalent) and CuCl2 (1/1, mol/mol); for % MLs: Cu(II), EDTA as Lc, 1/1/1 at 15 μM
Method: An organic solvent (CH3OH, dioxane or DMSO) was added in order to achieve good solubility of all the ligands and metal complexes in the concentrations used in these experiments. Monitoring has shown that all the ligands and metal complexes examined yield results corresponding to the Beer-Lambert Law in the experimental conditions used.
Lc competing chelators were selected to provide a range of stability constants for the metal ion M presenting intervals of approximately one or two log units, as well as to make it possible for each competition experiment to quantify one of the Ls, MLs, Lcc or MLc species with a UV-vis spectrum wavelength without contaminating the three other species (FIG. 7). […] As the concentration [MLs]=x % of C is measured on the UV-visible spectra, the concentrations [Ls]=(1−x) % of C, [MLc]=(1−x) % of C and [Lc]=x % of C can be deduced therefrom and:
In these conditions, [MLs]=[MLc]; [MLs]+[Lc]=Y, y≧50 and:

[4] = UV-visible spectrophotometric titration with CuCl2 (metal/ligand stoichiometry); type: binding; conditions: 15 μM ligand; Tris-HCl buffer pH 7.4/organic solvent, per ligand as in Table 3 column Solvent
Method: An organic solvent (CH3OH, dioxane or DMSO) was added in order to achieve good solubility of the ligands and metal complexes in the concentrations used in these experiments. Exact proportions of the organic solvent/buffer mixture are specified for each UV-visible characterisation of the different ligands or metal complexes.
Aliquot portions of concentrated CuCl2 or ZnCl2 solutions (M) are added to a 15 μM ligand solution so as to induce only negligible variations in volume. After each addition, changes in absorption spectra are observed immediately and are consistent between two additions, which corresponds to a rapid complexing process. The exact absorption values relating to each ligand and the copper(II) or zinc(II) complexes thereof are detailed hereinafter in the Experimental part (in the Synthesis part for ligands and hereinafter for the metal complexes).
The stoichiometry of the different ligands (L) for Cu(II) or ZN(II) have therefore been determined spectrophotometrically by metal ion titration. In this example, for an M/L ratio increasing from 0 to 1, π→π* with transition, centred at 251 nm for the free ligand, is shifted to a lower energy with a concomitant appearance of an absorption band in the visible region of the spectrum (λmax to 383 nm), which is probably the result of an MLCT transition. For greater M/L ratios, no additional change in the UV-visible absorption spectra is observed.

[5] = system: Salmonella tiphimurium TA100; experiment: AMES test, TA100
Source text: AMES test: The method is adapted from D. M. Maron and B. N. Ames, Mutat.
The test involves evaluating the potential of the tested molecules to induce mutation which is reverse to the histidine locus of these lines. These two lines were provided by Dr. Bruce N. Ames (University of California, Berkeley, USA). They are resistant to Ampicillin and sensitive to Tetracycline. They are not mutant toward rfa, UvγV and UvγA. The line TA98 (his D3052) contains a mutation of reading phase (GC) whereas the line TA100 (his G46) contains a substitution of base pair (GC).
The compounds to be tested were dissolved in 100% of DMSO (the solvent) and diluted logarithmically (by a factor of 10) so as to obtain 4 test concentrations of 30,000; 3,000; 300 and 30 μg/ml. Each series of 0.1 ml of stock solution to be tested, 0.1 ml of test line and of culture medium with or without 0.5 ml of enzymatic homogenate (S9) of rat liver microsome were mixed with 2 ml of molten agarose (containing 0.5 mM of histidine and 0.5 mM of biotin). This mixture was placed on the surface of a plate of minimal agarose glucose medium (30 ml for each Petri dish) so as to obtain final concentrations of compound to be tested of 3,000; 300; 30 and 3 μγ/plate. The plates were then incubated at 37° C. for 48 hours. […] The revertant colonies of the test lines were counted using a colony counter (Sigma). […] A compound inducing a number of colonies <50% of cells obtained for the solvent alone was deemed to be toxic for the bacteria tested. All the experiments were carried out in triplicate.

[6] = Ls/CuCl2/Lc 1/1/1 at 15 μM, solvent per ligand as in Table 3
[7] = value per plate, Addition of S9: no
[8] = value per plate, Addition of S9: yes

T1 sequence (P05067 672-713 limits assumed, one chain of several): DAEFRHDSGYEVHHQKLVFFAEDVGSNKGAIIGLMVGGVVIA

Compound | amount of H2O2, 0.2 μM Aβ1-42 Cu/Aβ = 2 ([1]; ligand 1 eq/Cu(II) (0.4 μM)) | amount of H2O2, without Aβ1-42 ([2]; ligand 1 eq/Cu(II) (0.4 μM)) | percentage of the CuLs species at equilibrium, competing ligand EDTA [3, 6] | Complex observed by titration with Cu^II (observed L/Cu(II) stoichiometry) [4] | TA100 Cytotoxicity [5, 7] | TA100 Cytotoxicity [5, 8] | amount of H2O2, 0.5 μM Aβ1-42 Cu/Aβ = 0.75 ([1]; ligand 1 eq/Cu(II) (0.4 μM)) | percentage of the CuLs species at equilibrium, competing ligand EDDA [3, 6] | percentage of the CuLs species at equilibrium, competing ligand HIDA [3, 6] | number of Lc equivalents making it possible to form 50% of CuLs, Lc = EDTA [3] | TA100 Mutagenic effect [5, 8] | further results
O=C(c1ccc2cccc(O)c2n1)c1ccc2cccc(O)c2n1 [Compound 6, Bis(8-hydroxy-2-quinoline)methanone] | 0.86 ± 0.11 nmol | 0.82 nmol | 75% | LCu^II(1/1) |  |  |  |  |  |  |  | 
c1cnc2c(Nc3cccc4cccnc34)cccc2c1 [Compound 12, Bis(8-quinoline)amine] | 0.47 ± 0.09 nmol | 0.40 nmol | 55% | LCu^II(1/1) | >3000 µg | >3000 µg |  |  |  |  |  | TA100 Mutagenic effect [5]: >3000 µg
CC(C)(c1ccc2c(Cl)ccc(O)c2n1)c1ccc2c(Cl)ccc(O)c2n1 [Compound 4, 2,2′-(2,2-Propanediyl)-bis(5-chloro-8-hydroxyquinoline)] | 0.37 ± 0.09 nmol | 0.12 nmol | 40% | Cu^II(1/1) |  |  | 0.35 nmol | 90% | 100% | 0.65 eq |  | 
Oc1cccc2ccc(C(F)(F)c3ccc4cccc(O)c4n3)nc12 [Compound 5, 2,2′-(Difluoromethanediyl)-bis(8-hydroxyquinoline)] | 0.55 ± 0.08 nmol | 0.39 nmol | 45% | LCu^II(1/1) | 300 µg | >3000 µg |  |  |  |  | >3000 µg | bactericidal effect ([5]; TA100 line in the absence of S9): ≥ 300 μg/plate
CC(C)(c1ccc2cccc(O)c2n1)c1ccc2cccc(O)c2n1 [Compound 3, 2,2′-(2,2-propanediyl)-bis(8-hydroxyquinoline)] | 0.71 ± 0.02 nmol | 0.84 nmol | 50% |  | >3000 µg | >3000 µg | 0.55 nmol | 100% | 100% | 1 eq | >3000 µg | TA100 Mutagenic effect [5, 7]: >3000 µg; H2O2 production as a function of the Cu/Aβ1-42 ratio ([1]; FIG. 11, 1 equivalent of ligand per Cu(II) (0.4 μM), Aβ1-42 0.2 to 0.53 μM): virtually inhibit H2O2 production; amount of H2O2, 0.2 μM Aβ1-42 Cu/Aβ = 2 ([1]; ligand 0.5 eq/Cu(II)): 0.94 nmol; amount of H2O2, 0.2 μM Aβ1-42 Cu/Aβ = 2 ([1]; ligand 1.5 eq/Cu(II)): 0.49 nmol; amount of H2O2, without Aβ1-42 ([2]; ligand 0.5 eq/Cu(II)): 2.12 nmol; % MLs ([3]; Buffer/CH3OH (1/1)): 50%; % MLs ([3]; Buffer/DMSO (2/8)): 55%; % MLs ([3]; Buffer/dioxane (1/1)): 45%; percentage of the CuLs species at equilibrium, competing ligand CTDA [3, 6]: 15%; percentage of the CuLs species at equilibrium, competing ligand EDA [3, 6]: 100%; percentage of the CuLs species at equilibrium, competing ligand Tetren [3, 6]: 0%; percentage of the CuLs species at equilibrium, competing ligand Trien [3, 6]: 30%; percentage of the CuLs species at equilibrium, competing ligand biPy [3, 6]: 100%
